“And” between values parts separate entries of the source, which are not always exact repeats. Equal entries are not always repeated.

Consider 27 compounds from US20190345138A1, “HETEROCYCLIC AMIDES AS KINASE INHIBITORS” (GlaxoSmithKline Intellectual Property Development Limited, priority 2016, published 2019).

The target in one assay is T1, RIP1 kinase (Homo sapiens, UniProt Q13546).
T1 sequence (Q13546 1-375 limits assumed): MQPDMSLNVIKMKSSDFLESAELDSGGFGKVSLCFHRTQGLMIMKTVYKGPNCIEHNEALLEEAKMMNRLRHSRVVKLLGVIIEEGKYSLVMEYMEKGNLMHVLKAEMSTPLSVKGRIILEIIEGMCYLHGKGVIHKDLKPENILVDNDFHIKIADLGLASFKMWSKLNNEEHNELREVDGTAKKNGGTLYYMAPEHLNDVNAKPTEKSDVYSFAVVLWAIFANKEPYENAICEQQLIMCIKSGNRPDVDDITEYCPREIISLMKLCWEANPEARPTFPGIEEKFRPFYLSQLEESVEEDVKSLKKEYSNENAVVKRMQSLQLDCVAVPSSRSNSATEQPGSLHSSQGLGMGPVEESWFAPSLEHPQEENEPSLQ
Briefly: fluorescent polarization based binding assay. The settings on record: mean of a minimum of 2 experiments. An excerpt: A fluorescent polarization based binding assay was used to assess the activity of the compounds of this invention, the details of which are disclosed in International Patent Appln. No. PCT/IB2014/059004, now, International Patent Appln. Pub.

In assay [1] the test system is human monocytic leukemia U937 cells. Briefly: necroptosis assay in U937 cells. Type of assay: cell-based. The settings on record: Homo sapiens, U-937, U937 cells; viability by cellular ATP (Cell Titer-Glo); read-out: pIC50, inhibited necrosis in U937 cells (converted). As for the experimental part: The efficacy of RIP1 inhibitors can be tested […] in vitro using a human monocytic leukemia U937 or mouse L929 fibrosarcoma cells in a necroptosis assay. As determined using the method described in S. He et al., Cell, 137(6):1100-1111 (2009) and International Patent Appln. No. PCT/IB2014/059004, now, International Patent Appln. Pub.
Viability was measured by quantitating cellular levels of ATP using the Cell Titer-Glo kit. All data are means±standard deviation of the mean.

Consider `O=C(C1CCN(c2ccc(C(F)(F)F)nn2)CC1)N1N=CC[C@H]1c1ccccc1` [Example 26, (S)-(5-phenyl-4,5-dihydro-1H-pyrazol-1-yl)(1-(6-(trifluoromethyl)pyridazin-3-yl)piperidin-4-yl)methanone], for which the results for the IC50 (on RIP1 kinase; in assay [1]) were 1 to 31.6 nM and 1 to 100 nM, respectively.
Take `O=C(NC1CCNCC1)c1ccnc(N2CCC(C(=O)N3N=CC[C@H]3c3ccccc3)CC2)n1` [Example 147, (S)-2-(4-(5-phenyl-4,5-dihydro-1H-pyrazole-1-carbonyl)piperidin-1-yl)-N-(piperidin-4-yl)pyrimidine-4-carboxamide]: the IC50 at RIP1 kinase was 1 to 31.6 nM; in assay [1], 1 to 100 nM.
For `Cc1nc(N)cc(N2CCC(C(=O)N3N=CC[C@H]3c3ccccc3)CC2)n1` [Example 33, (S)-(1-(6-amino-2-methylpyrimidin-4-yl)piperidin-4-yl)(5-phenyl-4,5-dihydro-1H-pyrazol-1-yl)methanone], the IC50 at RIP1 kinase is 1 to 31.6 nM; in assay [1], 1 to 100 nM.
On to `NC(=O)c1cncc(N2CCC(C(=O)N3N=CC[C@H]3c3ccccc3)CC2)n1` [Example 31, (S)-6-(4-(5-phenyl-4,5-dihydro-1H-pyrazole-1-carbonyl)piperidin-1-yl)pyrazine-2-carboxamide], for which the results for the IC50 (at RIP1 kinase; in assay [1]) were 1 to 31.6 nM and 1 to 100 nM, respectively.
With `CN1CCN(C(=O)c2ccnc(N3CCC(C(=O)N4N=CC[C@H]4c4ccccc4)CC3)n2)CC1` [Example 141, (S)-(4-methylpiperazin-1-yl)(2-(4-(5-phenyl-4,5-dihydro-1H-pyrazole-1-carbonyl)piperidin-1-yl)pyrimidin-4-yl)methanone], the IC50 was 1 to 31.6 nM at RIP1 kinase and 1 to 100 nM in assay [1].
In the same order, the values of `C#Cc1cc(N2CCC(C(=O)N3N=CC[C@H]3c3cccc(C#N)c3)CC2)ncn1` [Example 158, (S)-3-(1-(1-(6-ethynylpyrimidin-4-yl)piperidine-4-carbonyl)-4,5-dihydro-1H-pyrazol-5-yl)benzonitrile] are 1 to 31.6 nM and 1 to 100 nM.
Turning to `O=C(C1CCN(c2nccc(CO)n2)CC1)N1N=CC[C@H]1c1ccccc1` [Example 130, (S)-(1-(4-(hydroxymethyl)pyrimidin-2-yl)piperidin-4-yl)(5-phenyl-4,5-dihydro-1H-pyrazol-1-yl)methanone], the IC50 on RIP1 kinase is 1 to 31.6 nM; in assay [1], 1 to 100 nM.
With `COc1nccc(N2CCC(C(=O)N3N=CC[C@H]3c3cc(F)cc(F)c3)CC2)n1` [Example 99, (S)-(5-(3,5-difluorophenyl)-4,5-dihydro-1H-pyrazol-1-yl)(1-(2-methoxypyrimidin-4-yl)piperidin-4-yl)methanone], the IC50 on RIP1 kinase is 1 to 31.6 nM and 1 to 10 nM; in assay [1], 1 to 100 nM.
With `COc1nccc(N2CCC(C(=O)N3N=CC[C@H]3c3ccccc3)CC2)n1` [Example 17, (S)-(1-(2-methoxypyrimidin-4-yl)piperidin-4-yl)(5-phenyl-4,5-dihydro-1H-pyrazol-1-yl)methanone], the IC50 on RIP1 kinase is 1 to 31.6 nM and 1 to 10 nM; in assay [1] it was 1 to 100 nM.
As to `O=C(C1CCN(c2ccc3nccn3n2)CC1)N1N=CC[C@H]1c1cc(F)cc(F)c1` [Example 87, (S)-(5-(3,5-difluorophenyl)-4,5-dihydro-1H-pyrazol-1-yl)(1-(imidazo[1,2-b]pyridazin-6-yl)piperidin-4-yl)methanone], the IC50 was 1 to 31.6 nM and 1 to 10 nM on RIP1 kinase; 1 to 100 nM in assay [1].
As to `O=C(C1CCN(c2cncc(-c3ccccc3)n2)CC1)N1N=CC[C@H]1c1ccccc1` [Example 38, (S)-(5-phenyl-4,5-dihydro-1H-pyrazol-1-yl)(1-(6-phenylpyrazin-2-yl)piperidin-4-yl)methanone], the IC50 at RIP1 kinase was 1 to 31.6 nM; in assay [1], 1 to 100 nM.
As to `O=C(C1CCN(c2ccn3nccc3n2)CC1)N1N=CC[C@H]1c1cncc(F)c1` [Example 116, (S)-(5-(5-fluoropyridin-3-yl)-4,5-dihydro-1H-pyrazol-1-yl)(1-(pyrazolo[1,5-a]pyrimidin-5-yl)piperidin-4-yl)methanone], the IC50 at RIP1 kinase is 1 to 31.6 nM; in assay [1], 1 to 100 nM.
On to `COc1cncc(N2CCC(C(=O)N3N=CC[C@H]3c3ccccc3)CC2)n1` [Example 48, (S)-(1-(6-methoxypyrazin-2-yl)piperidin-4-yl)(5-phenyl-4,5-dihydro-1H-pyrazol-1-yl)methanone], for which the IC50 is 1 to 31.6 nM on RIP1 kinase and 1 to 100 nM in assay [1].
Turning to `O=C(C1CCN(c2nccc(C3=NCCN3)n2)CC1)N1N=CC[C@H]1c1ccccc1` [Example 140, (S)-(1-(4-(4,5-dihydro-1H-imidazol-2-yl)pyrimidin-2-yl)piperidin-4-yl)(5-phenyl-4,5-dihydro-1H-pyrazol-1-yl)methanone], the IC50 was 1 to 31.6 nM and 1 to 10 nM at RIP1 kinase; 1 to 100 nM in assay [1].
As for `COc1ccnc(N2CCC(C(=O)N3N=CCC3c3ccccc3)CC2)n1` (racemic) [Example 3, (1-(4-methoxypyrimidin-2-yl)piperidin-4-yl)(5-phenyl-4,5-dihydro-1H-pyrazol-1-yl)methanone], the IC50 on RIP1 kinase was 1 to 31.6 nM; in assay [1] it was 1 to 100 nM.
For `N#Cc1cnc(N2CCC(C(=O)N3N=CC[C@H]3c3cc(F)cc(F)c3)CC2)o1` [Example 133, (S)-2-(4-(5-(3,5-difluorophenyl)-4,5-dihydro-1H-pyrazole-1-carbonyl)piperidin-1-yl)oxazole-5-carbonitrile], the IC50 is 1 to 31.6 nM and 1 to 10 nM at RIP1 kinase; 1 to 100 nM in assay [1].
Regarding `O=C(C1CCN(c2nnc(-c3ccccc3)o2)CC1)N1N=CC[C@H]1c1ccccc1` [Example 57, (S)-(1-(5-phenyl-1,3,4-oxadiazol-2-yl)piperidin-4-yl)(5-phenyl-4,5-dihydro-1H-pyrazol-1-yl)methanone], the IC50 at RIP1 kinase was 1 to 31.6 nM; in assay [1], 1 to 100 nM.
Turning to `Nc1cc(N2CCC(C(=O)N3N=CC[C@H]3c3cc(F)cc(F)c3)CC2)ncn1` [Example 98, (S)-(1-(6-aminopyrimidin-4-yl)piperidin-4-yl)(5-(3,5-difluorophenyl)-4,5-dihydro-1H-pyrazol-1-yl)methanone], the IC50 was 1 to 31.6 nM and 1 to 10 nM on RIP1 kinase; 1 to 100 nM in assay [1].
With `N#Cc1cccc([C@@H]2CC=NN2C(=O)C2CCN(c3cc(C#N)ncn3)CC2)c1` [Example 68, (S)-6-(4-(5-(3-cyanophenyl)-4,5-dihydro-1H-pyrazole-1-carbonyl)piperidin-1-yl)pyrimidine-4-carbonitrile], the IC50 was 1 to 31.6 nM at RIP1 kinase and 1 to 100 nM in assay [1].
Take `N#Cc1cccc([C@@H]2CC=NN2C(=O)C2CCN(c3ncc4cn[nH]c4n3)CC2)c1` [Example 76, (S)-3-(1-(1-(1H-pyrazolo[3,4-d]pyrimidin-6-yl)piperidine-4-carbonyl)-4,5-dihydro-1H-pyrazol-5-yl)benzonitrile]: the IC50 on RIP1 kinase was 1 to 31.6 nM; in assay [1] it was 1 to 100 nM.
Take `N#Cc1cnc(N2CCC(C(=O)N3N=CCC3c3ccccc3)CC2)nc1` (racemic) [Example 2, 2-(4-(5-phenyl-4,5-dihydro-1H-pyrazole-1-carbonyl)piperidin-1-yl)pyrimidine-5-carbonitrile]: the IC50 on RIP1 kinase is 1 to 31.6 nM; in assay [1], 1 to 100 nM.
In the case of `COc1nc(N)cc(N2CCC(C(=O)N3N=CC[C@H]3c3ccccc3)CC2)n1` [Example 35, (S)-(1-(6-amino-2-methoxypyrimidin-4-yl)piperidin-4-yl)(5-phenyl-4,5-dihydro-1H-pyrazol-1-yl)methanone], the IC50 on RIP1 kinase is 1 to 31.6 nM; in assay [1] it was 1 to 100 nM.
Regarding `Nc1nccc(N2CCC(C(=O)N3N=CC[C@H]3c3cc(F)cc(F)c3)CC2)n1` [Example 84, (S)-(1-(2-aminopyrimidin-4-yl)piperidin-4-yl)(5-(3,5-difluorophenyl)-4,5-dihydro-1H-pyrazol-1-yl)methanone], the values for the IC50 (on RIP1 kinase; in assay [1]) were 1 to 31.6 nM and 1 to 100 nM, respectively.
For `C#Cc1cc(N2CCC(C(=O)N3N=CC[C@H]3c3cc(F)cc(F)c3)CC2)ncn1` [Example 157, (S)-(5-(3,5-difluorophenyl)-4,5-dihydro-1H-pyrazol-1-yl)(1-(6-ethynylpyrimidin-4-yl)piperidin-4-yl)methanone], the IC50 is 1 to 31.6 nM and 1 to 10 nM at RIP1 kinase; 1 to 100 nM in assay [1].
Consider `Nc1cncc(N2CCC(C(=O)N3N=CC[C@H]3c3ccccc3)CC2)n1` [Example 41, (S)-(1-(6-aminopyrazin-2-yl)piperidin-4-yl)(5-phenyl-4,5-dihydro-1H-pyrazol-1-yl)methanone], for which the IC50 on RIP1 kinase was 1 to 31.6 nM; in assay [1] it was 1 to 100 nM.
For `O=C(C1CCN(c2ccnc(C(F)(F)F)n2)CC1)N1N=CC[C@H]1c1ccccc1` [Example 46, (S)-(5-phenyl-4,5-dihydro-1H-pyrazol-1-yl)(1-(2-(trifluoromethyl)pyrimidin-4-yl)piperidin-4-yl)methanone], the IC50 at RIP1 kinase was 1 to 31.6 nM and 1 to 10 nM; in assay [1], 1 to 100 nM.
For `N#Cc1cnc(N2CCC(C(=O)N3N=CC[C@H]3c3ccccc3)CC2)o1` [Example 138, (S)-2-(4-(5-phenyl-4,5-dihydro-1H-pyrazole-1-carbonyl)piperidin-1-yl)oxazole-5-carbonitrile], the IC50 at RIP1 kinase was 1 to 31.6 nM and 1 to 10 nM; in assay [1] it was 1 to 100 nM.
